Patent publication US7759366B2 (Sanofi-Aventis, priority 2006, dated 2010)
Structures can show the parent of a compound that is named as a salt. Where two headings read alike, the source gives them in different places.

Legend:
hCB2R = hCB2R (Homo sapiens, UniProt P34972); assay: In vitro functional assay (FLIPR, intracellular Ca2+) with recombinant HEK293 cells, CB2;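 further: intracellular Ca2+ was tracked with the fluorescent dye Fluo-4 loaded into the cells before test substance addition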
Experimental: Function-testing assays were performed by means of the FLIPR technique (“Fluorometric Imaging Plate Reader”, Molecular Devices Corp.).
To this end, ligand-induced changes in the intracellular concentration of Ca^2+ in recombinant HEK293 cells, which expressed both a cannabinoid receptor (CB1 or CB2) and G-protein Galpha16, were determined. For the studies, cells were sown into 96-well microtiter plates (60 000 cells/well) and left to grow overnight. The medium was removed and the cells were incubated in buffer which contained the fluorescent dye Fluo-4. After this loading with dye, the cells were washed, test substance was added dissolved in buffer, the mixture was incubated for 20 minutes, a known cannabinoid receptor agonist as a reference agonist was added in buffer and, finally, the changes in the intracellular Ca^2+ concentration were measured in the FLIPR unit.

hCB1R [1] = target: T1, hCB1R (Homo sapiens, UniProt P21554); assay: Binding to the CB1 receptor ([3H]-SR141716A displacement)
T1 sequence (P21554 whole entry): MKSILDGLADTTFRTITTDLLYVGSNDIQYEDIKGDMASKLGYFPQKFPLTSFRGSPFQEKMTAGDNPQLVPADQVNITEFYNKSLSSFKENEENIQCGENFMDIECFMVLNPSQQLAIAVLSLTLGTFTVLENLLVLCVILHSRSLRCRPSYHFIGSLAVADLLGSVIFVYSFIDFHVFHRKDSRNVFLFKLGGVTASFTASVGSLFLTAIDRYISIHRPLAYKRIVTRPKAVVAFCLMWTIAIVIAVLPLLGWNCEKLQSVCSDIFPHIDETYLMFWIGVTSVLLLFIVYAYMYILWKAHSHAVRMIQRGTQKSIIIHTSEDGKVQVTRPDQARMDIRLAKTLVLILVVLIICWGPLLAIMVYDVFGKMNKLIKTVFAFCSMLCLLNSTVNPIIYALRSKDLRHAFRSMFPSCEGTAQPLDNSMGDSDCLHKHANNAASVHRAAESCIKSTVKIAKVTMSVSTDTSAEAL
Method in brief: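 [3H]-SR141716A displacement at hCB1R; test compounds at final 10 μM to 0.005 μM in assay buffer with 1% DMSO, duplicate determinations. Low control 1 μM AM 251, high control binding without compound; IC50 from curve fit, converted to Ki via Cheng-Prusoff using Kd.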

hCB1R [2] = target: T1, hCB1R; assay: In vitro functional assay (FLIPR, intracellular Ca2+) with recombinant HEK293 cells, CB1; assay type: cell-based; parameters: expressed in transfected cells; host or cells: HEK293
Excerpt: In Vitro Functional Assays with Recombinant Cells:

[3] = read-out: hCB2R: FLIPR, IC50, recombinant HEK293 cells expressing CB2 and Galpha16, 20 min preincubation, then reference agonist, Ca2+ change
[4] = recombinant HEK293 cells expressing CB1 and Galpha16, 20 min preincubation, then reference agonist, Ca2+ change, read-out: hCB1R: FLIPR, IC50

hCB2R, sequence (P34972 whole entry): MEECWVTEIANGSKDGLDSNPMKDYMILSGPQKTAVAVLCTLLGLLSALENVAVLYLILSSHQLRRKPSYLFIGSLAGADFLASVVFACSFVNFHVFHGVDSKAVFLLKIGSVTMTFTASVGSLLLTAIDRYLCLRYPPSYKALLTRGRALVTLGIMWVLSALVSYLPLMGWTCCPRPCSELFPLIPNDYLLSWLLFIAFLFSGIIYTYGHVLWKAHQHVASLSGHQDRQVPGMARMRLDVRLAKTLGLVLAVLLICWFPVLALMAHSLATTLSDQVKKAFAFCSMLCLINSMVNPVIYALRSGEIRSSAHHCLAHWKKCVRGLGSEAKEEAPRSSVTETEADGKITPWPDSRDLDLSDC

Row | Compound | IC50 (hCB2R; [3]) | Ki (hCB1R [1]) | IC50 (hCB1R [2]) | IC50 (hCB2R) | IC50 (hCB1R [2]; [4])
1 | CC1OC(=O)c2cc(Nc3ccccc3CN3C(=O)N(c4ccc(C#N)c(C(F)(F)F)c4)C(=O)C3(C)C)ccc2O1 (stereo not shown) [Example 142, 4-{4,4-dimethyl-3-[2-(2-methyl-4-oxo-4H-1,3-benzodioxin-6-ylamino)benzyl]-2,5-dioxoimidazolidin-1-yl}-2-trifluoromethylbenzonitrile] | > 10000 nM | 3 nM |  |  | 
2 | CC1(C)C(=O)N(c2ccc(C#N)c(C(F)(F)F)c2)C(=O)N1Cc1ccccc1Nc1ccc(C(=O)NC(CO)CO)cc1 [Example 137, 4-{2-[3-(4-cyano-3-trifluoromethylphenyl)-5,5-dimethyl-2,4-dioxoimidazolidin-1-ylmethyl]phenylamino}-N-(2-hydroxy-1-hydroxymethylethyl)benzamide] | > 10000 nM | 51 nM |  |  | 
3 | CC1(C)C(=O)N(c2ccc(C#N)c(C(F)(F)F)c2)C(=O)N1Cc1c(Cl)cc(Cl)cc1Nc1ccc(F)cc1F [Example 36, 4-{3-[2,4-dichloro-6-(2,4-difluorophenylamino)benzyl]-4,4-dimethyl-2,5-dioxoimidazolidin-1-yl}-2-trifluoromethylbenzonitrile] | > 10000 nM |  | 11 nM |  | 
4 | COc1ccc(Nc2ccccc2CN2C(=O)N(c3ccc(C#N)c(C(F)(F)F)c3)C(=O)C2(C)C)cc1OC [Example 75, 4-{3-[2-(3,4-dimethoxyphenylamino)benzyl]-4,4-dimethyl-2,5-dioxoimidazolidin-1-yl}-2-trifluoromethylbenzonitrile] | > 10000 nM |  | 49 nM |  | 
5 | CC1(C)C(=O)N(c2ccc(C#N)c(C(F)(F)F)c2)C(=O)N1Cc1ccccc1Nc1ccc(C(N)=O)cc1 [Example 136, 4-{2-[3-(4-Cyano-3-trifluoromethylphenyl)-5,5-dimethyl-2,4-dioxoimidazolidin-1-ylmethyl]phenylamino}benzamide] | > 10000 nM |  | 5 nM |  | 
6 | COC(=O)c1ccc(Nc2ccccc2CN2C(=O)N(c3ccc(C#N)c(C(F)(F)F)c3)C(=O)C2(C)C)cn1 [Example 90, methyl 5-{2-[3-(4-cyano-3-trifluoromethylphenyl)-5,5-dimethyl-2,4-dioxoimidazolidin-1-ylmethyl]phenylamino}pyridine-2-carboxylate] | > 10000 nM |  | 39 nM |  | 
7 | COc1ccc(Nc2ccccc2CN2C(=O)N(c3ccc(C#N)c(C(F)(F)F)c3)C(=O)C2(C)C)cn1 [Example 83, 4-{3-[2-(6-methoxypyridin-3-ylamino)benzyl]-4,4-dimethyl-2,5-dioxoimidazolidin-1-yl}-2-trifluoromethylbenzonitrile] | > 10000 nM |  | 9 nM |  | 
8 | CC1(C)C(=O)N(c2ccc(C#N)c(C(F)(F)F)c2)C(=O)N1Cc1ccccc1Nc1ccc(CC(N)=O)cc1 [Example 97, 2-(4-{2-[3-(4-Cyano-3-trifluoromethylphenyl)-5,5-dimethyl-2,4-dioxoimidazolidin-1-ylmethyl]phenylamino}phenyl)acetamide] | > 10000 nM |  | 7 nM |  | 
9 | CC1(C)C(=O)N(c2ccc(F)c(C(F)(F)F)c2)C(=O)N1Cc1ccccc1Nc1ccc(C(=N)NO)cc1 [Example 143, 4-{2-[3-(4-Fluoro-3-trifluoromethylphenyl)-5,5-dimethyl-2,4-dioxoimidazolidin-1-ylmethyl]phenylamino}-N-hydroxybenzamidine hydrochloride] |  |  |  | > 10000 nM | 13 nM
10 | COC(=O)Cc1ccc(Nc2ccccc2CN2C(=O)N(c3ccc(C#N)c(C(F)(F)F)c3)C(=O)C2(C)C)cc1 [Example 82, methyl (4-{2-[3-(4-cyano-3-trifluoromethylphenyl)-5,5-dimethyl-2,4-dioxoimidazolidin-1-ylmethyl]phenylamino}phenyl)acetate] | > 10000 nM |  | 52 nM |  | 
11 | COC(=O)c1ccc(Nc2ccccc2CN2C(=O)N(c3ccc(C#N)c(C(F)(F)F)c3)C(=O)C2(C)C)cc1OC [Example 140, methyl 4-{2-[3-(4-cyano-3-trifluoromethylphenyl)-5,5-dimethyl-2,4-dioxoimidazolidin-1-ylmethyl]phenylamino}-2-methoxybenzoate] | > 10000 nM | 26 nM |  |  | 
12 | CC1(C)C(=O)N(c2ccc(C#N)c(C(F)(F)F)c2)C(=O)N1Cc1ccccc1Nc1ccc(OC(F)(F)F)cc1F [Example 85, 4-{3-[2-(2-fluoro-4-trifluoromethoxyphenylamino)benzyl]-4,4-dimethyl-2,5-dioxoimidazolidin-1-yl}-2-trifluoromethylbenzonitrile] | > 10000 nM |  | 7 nM |  | 
13 | CCOC(=O)COc1ccc(Nc2ccccc2CN2C(=O)N(c3ccc(C#N)c(C(F)(F)F)c3)C(=O)C2(C)C)cc1 [Example 138, ethyl (4-{2-[3-(4-cyano-3-trifluoromethylphenyl)-5,5-dimethyl-2,4-dioxoimidazolidin-1-ylmethyl]phenylamino}phenoxy)acetate] | > 10000 nM |  | 4 nM |  | 
14 | CC1(C)C(=O)N(c2ccc(C#N)c(C(F)(F)F)c2)C(=O)N1Cc1ccccc1Nc1ccc(S(N)(=O)=O)cc1F [Example 81, 4-{2-[3-(4-cyano-3-trifluoromethylphenyl)-5,5-dimethyl-2,4-dioxoimidazolidin-1-ylmethyl]phenylamino}-3-fluorobenzenesulfonamide] |  |  |  | > 10000 nM | 144 nM
15 | CC1(C)C(=O)N(c2ccc(C#N)c(C(F)(F)F)c2)C(=O)N1Cc1ccccc1Nc1ccc(C(F)(F)F)nc1 [Example 91, 4-{4,4-dimethyl-2,5-dioxo-3-[2-(6-trifluoromethylpyridin-3-ylamino)benzyl]-imidazolidin-1-yl}-2-trifluoromethylbenzonitrile] | > 10000 nM |  | 30 nM |  | 
16 | CC1(C)C(=O)N(c2ccc(C#N)c(C(F)(F)F)c2)C(=O)N1Cc1ccc(Nc2ccccc2)cc1 [Example 30, 4-[4,4-Dimethyl-2,5-dioxo-3-(4-phenylaminobenzyl)imidazolidin-1-yl]-2-trifluoromethylbenzonitrile] |  |  |  | > 10000 nM | 208 nM
17 | CC1(C)C(=O)N(c2ccc(C#N)c(C(F)(F)F)c2)C(=O)N1Cc1ccccc1Nc1ccc(CC#N)cc1 [Example 78, 4-{3-[2-(4-cyanomethylphenylamino)benzyl]-4,4-dimethyl-2,5-dioxoimidazolidin-1-yl}-2-trifluoromethylbenzonitrile] | > 10000 nM |  | 4 nM |  | 
18 | CC1(C)C(=O)N(c2ccc(C#N)c(C(F)(F)F)c2)C(=O)N1Cc1ccccc1Nc1ccc(F)cc1 [Example 2, 4-{3-[2-(4-fluorophenylamino)benzyl]-4,4-dimethyl-2,5-dioxoimidazolidin-1-yl}-2-trifluoromethylbenzonitrile] | > 10000 nM |  | 11 nM |  | 
19 | CC1(C)C(=O)N(c2ccc(C#N)c(C(F)(F)F)c2)C(=O)N1Cc1ccccc1Nc1ccc(CC(=O)O)cc1 [Example 92, (4-{2-[3-(4-cyano-3-trifluoromethylphenyl)-5,5-dimethyl-2,4-dioxoimidazolidin-1-ylmethyl]phenylamino}phenyl)acetic acid] |  |  |  | > 10000 nM | 137 nM
20 | CC1(C)C(=O)N(c2ccc(C#N)c(C(F)(F)F)c2)C(=O)N1Cc1ccccc1Nc1ccc(C#N)cc1F [Example 73, 4-{3-[2-(2-fluoro-4-cyanophenylamino)benzyl]-4,4-dimethyl-2,5-dioxoimidazolidin-1-yl}-2-trifluoromethylbenzonitrile] | > 10000 nM |  | 7 nM |  | 
